Experiment: Absorption and emission maxima in water
Format: physicochemical

- Abs. max (water): 643 nm
- Em. Max (water): 663 nm
Structure (SMILES): O=C(O)c1ccc(C(=C\C=C2/Sc3ccccc3N2CCCS(=O)(=O)O)/C=C/c2sc3ccccc3[n+]2CCCS(=O)(=O)O)nc1 [Example 6]

From patent US8771646B2, “Nicotinic acid and picolinic acid derived near-infrared fluorophores” (VisEn Medical, Inc., priority 2005, dated 2014)
